In patent publication US8076329B2, “Histamine H3-receptor ligands and their therapeutic applications” (Bioprojet, priority 2005, dated 2011):

Assays:
[1] = molecular target: human histamine H3 receptors (Homo sapiens, UniProt Q9Y5N1); test: H3 binding ([125I]iodoproxyfan displacement on membranes); conditions: compounds of the invention; membranes expressing human H3 receptors
Experimental: Membranes expressing human histamine H3 receptors were incubated 1 hour at room temperature in binding buffer containing 50 mM Na2HPO4/KH2PO4 pH 7.5 in a final volume of 200 μl. […] The reaction was stopped by rapid filtration through GF/B filters (pre-soaked for 2 hours with 0.3% polyethyleneimine) followed by 3 ice cold binding buffer washes. The filter-bound radioactivity was measured in a liquid scintillation counter with 50 μl of scintillation fluid.

CYP3A4 = CYP3A4 (Homo sapiens, UniProt P08684); test: Cytochrome inhibition, fluorometric microtiter plate assay; format: in vitro ADME; conditions: CYP3A4 cytochrome inhibition (IC50, concentrations in μM for 50% inhibition), human recombinant CYP3A4, substrate BFC; compounds of the invention
Experimental: (§1) The ability of drug in human to inhibit the catalytic activity of cytochrome P-450 isoforms was assayed using microtiter plate-based, fluorometric assays for the activities of the five human major CYP forms. Inhibition potential was determined in vitro after incubation of fluorescent model substrates over various incubation time with human recombinant cytochrome isoforms in the absence or in presence of increasing concentrations of test molecules (from 1 nM to 100 μM), in comparison with specific CYP isoform inhibitors.
(§2) Incubation of drug was carried out at 37° C.±0.5° C. under agitation in the presence of human recombinant cytochrome P-450 isoforms and a NADPH generating system. The incubation conditions for each cytochrome isoform were as follows: […]

CYP2D6 = CYP2D6 (Homo sapiens, UniProt P10635); test: as above; format: in vitro ADME; conditions: CYP2D6 cytochrome inhibition (IC50, concentrations in μM for 50% inhibition), human recombinant CYP2D6, substrate AMMC; compounds of the invention
Experimental: as §1, §2

Chain of CYP2D6 (P10635 whole entry): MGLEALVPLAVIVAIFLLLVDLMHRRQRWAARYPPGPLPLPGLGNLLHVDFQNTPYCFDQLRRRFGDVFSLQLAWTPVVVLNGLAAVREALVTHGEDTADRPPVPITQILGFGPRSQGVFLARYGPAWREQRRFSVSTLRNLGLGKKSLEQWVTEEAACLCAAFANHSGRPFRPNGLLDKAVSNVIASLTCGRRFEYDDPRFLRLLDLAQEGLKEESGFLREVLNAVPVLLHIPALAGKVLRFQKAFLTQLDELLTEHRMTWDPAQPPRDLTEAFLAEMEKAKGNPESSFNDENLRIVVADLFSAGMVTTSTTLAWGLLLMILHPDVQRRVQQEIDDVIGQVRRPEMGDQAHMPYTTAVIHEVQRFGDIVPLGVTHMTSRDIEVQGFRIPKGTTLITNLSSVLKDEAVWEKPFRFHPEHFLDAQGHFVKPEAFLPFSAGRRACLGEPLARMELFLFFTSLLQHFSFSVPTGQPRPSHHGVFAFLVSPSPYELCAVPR
Chain of CYP3A4 (P08684 whole entry, canonical isoform): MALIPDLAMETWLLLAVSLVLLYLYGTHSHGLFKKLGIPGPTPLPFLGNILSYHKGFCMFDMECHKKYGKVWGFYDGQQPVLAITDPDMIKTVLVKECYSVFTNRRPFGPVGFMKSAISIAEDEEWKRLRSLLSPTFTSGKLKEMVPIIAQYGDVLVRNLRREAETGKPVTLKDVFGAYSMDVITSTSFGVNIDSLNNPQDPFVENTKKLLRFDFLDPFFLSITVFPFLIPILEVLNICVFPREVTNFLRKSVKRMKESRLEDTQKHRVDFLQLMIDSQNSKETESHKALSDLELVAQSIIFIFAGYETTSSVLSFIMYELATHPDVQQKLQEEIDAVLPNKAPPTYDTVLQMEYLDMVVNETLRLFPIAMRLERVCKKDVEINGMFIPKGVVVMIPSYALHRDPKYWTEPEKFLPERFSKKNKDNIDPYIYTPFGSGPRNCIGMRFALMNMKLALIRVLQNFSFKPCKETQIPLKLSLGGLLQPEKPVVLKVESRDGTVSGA
Chain of human histamine H3 receptors (Q9Y5N1 whole entry): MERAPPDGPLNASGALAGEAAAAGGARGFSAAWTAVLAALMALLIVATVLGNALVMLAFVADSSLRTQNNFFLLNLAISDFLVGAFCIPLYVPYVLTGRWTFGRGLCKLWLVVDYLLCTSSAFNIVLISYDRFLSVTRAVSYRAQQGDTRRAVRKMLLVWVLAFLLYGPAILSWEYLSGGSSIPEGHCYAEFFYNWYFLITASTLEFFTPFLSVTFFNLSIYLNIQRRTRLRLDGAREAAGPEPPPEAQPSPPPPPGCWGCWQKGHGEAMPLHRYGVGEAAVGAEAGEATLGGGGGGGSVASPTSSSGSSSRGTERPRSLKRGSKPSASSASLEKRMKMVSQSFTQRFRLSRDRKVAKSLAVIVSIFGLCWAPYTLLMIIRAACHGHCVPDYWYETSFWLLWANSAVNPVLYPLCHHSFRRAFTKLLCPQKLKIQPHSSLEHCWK

Structure (SMILES) | Ki [1] [µM] | IC50 (CYP3A4) [µM] | IC50 (CYP2D6) [µM] | melting point [°C]
Cc1ccc(-c2ccc(OCCCN3CCCCC3)cc2)cc1.O=C(O)C(=O)O [Example 24, 1-{3-[(4′-methylbiphenyl-4-yl)oxy]propyl}piperidine] | 0.0035 | > 10 | > 10 | 195
C(#Cc1ccc(OCCCN2CCCCC2)cc1)CCN1CCCCC1.O=C(O)C(=O)O.O=C(O)C(=O)O [Example 43, 1-{3-[4-(4-Piperidinobut-1-yn-1-yl)phenoxy]propyl}piperidine] |  | > 10 | > 1 | 167
C[C@H]1CCCN(CCCOc2ccc(-c3ccnc(O)c3)cc2)C1.O=C(O)C(=O)O [Example 55, 2-hydroxy-4-(4-{3-[(3S)-3-methylpiperidin-1-yl]propoxy}phenyl)pyridine] |  | > 10 | > 10 | 110
C[C@H]1CCCN(CCCOc2ccc(-c3ccnc(Cl)c3)cc2)C1.O=C(O)C(=O)O.O=C(O)C(=O)O [Example 56, 2-chloro-4-(4-{3-[(3S)-3-methylpiperidin-1-yl]propoxy}phenyl)pyridine] |  | > 1 | > 10 | 143
Cc1cc(-c2ccc(OCCCN3CCC[C@H](C)C3)cc2)ccn1.O=C(O)C(=O)O.O=C(O)C(=O)O [Example 59, 2-methyl-4-(4-{3-[(3S)-3-methylpiperidin-1-yl]propoxy}phenyl)pyridine] |  | > 10 | > 10 | 97
